The record followed here is PubChem BioAssay (NCI).

Some test systems named below: OVCAR-5 ovarian; SF-295 CNS; SR leukemia; M14 melanoma; HCT-116 colon; MALME-3M melanoma; OVCAR-8 ovarian; SNB-75 CNS; RXF 393 renal; NCI-H522 lung.
Holding throughout (experiment): growth of human tumour cells (NCI), 48 h

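Protocol summary: plate cells (96-well), add compound at 5 concentrations, incubate 48 h, interpolate endpoints linearly. The concentration for 50% growth inhibition is given as GI50. TGI denotes the concentration required for complete inhibition of growth.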 Bounds are passed on as bounds.

As for `CCCCCCCCOCC(O)COC(=O)CCCCCCC` (stereo not drawn), the TGI in the assay on OVCAR-5 ovarian, with SF-295 CNS, in the assay on SR leukemia, in the assay with M14 melanoma, in the assay on HCT-116 colon and in the assay with MALME-3M melanoma was more than 100 µM each time. The compound also yielded a TGI in the assay on OVCAR-8 ovarian of more than 100 µM.
As to `COc1ccc2c(CN3CCC(C(=O)O)CC3)cc3cc4c(cc3c2c1)OCO4`, the GI50 with SNB-75 CNS is 2.41 µM; with OVCAR-5 ovarian, 2.55 µM; in the assay with RXF 393 renal it was 1.14 µM; in the assay on SF-295 CNS it was 2.39 µM; in the assay with SR leukemia, 0.886 µM; in the assay with M14 melanoma, 2.11 µM. The GI50 in the assay on HCT-116 colon was 1.4 µM; in the assay on MALME-3M melanoma, 1.58 µM; in the assay with OVCAR-8 ovarian, 1.28 µM. For the same compound, the TGI stood at 9.03 µM in the assay with SNB-75 CNS; 6.87 µM in the assay with OVCAR-5 ovarian; 3.6 µM in the assay on RXF 393 renal; 10.1 µM with SF-295 CNS; 5.78 µM in the assay with SR leukemia; 4.94 µM with M14 melanoma. In addition, the values for the TGI in the assay on HCT-116 colon, in the assay on MALME-3M melanoma and in the assay with OVCAR-8 ovarian were 8.78 µM, 3.45 µM and 4.86 µM, respectively.
For `O=[N+]([O-])c1ccc(Sc2ncnc3nc[nH]c23)c2nonc12`, the GI50 was 1.83 µM in the assay on SNB-75 CNS; 10.3 µM in the assay with OVCAR-5 ovarian; 1.39 µM with NCI-H522 lung; 3.87 µM with SF-295 CNS; 0.723 µM with SR leukemia; 0.94 µM with M14 melanoma. Moreover, the GI50 in the assay on HCT-116 colon was 2.59 µM; in the assay with MALME-3M melanoma, 13.1 µM; with OVCAR-8 ovarian, 7.23 µM. Also, the TGI in the assay with SNB-75 CNS was determined as 14 µM; in the assay on OVCAR-5 ovarian, 22.6 µM; in the assay on NCI-H522 lung it was 2.71 µM; in the assay with SF-295 CNS, 20.6 µM; in the assay on SR leukemia, 13 µM; in the assay with M14 melanoma, 13.5 µM. The TGI with HCT-116 colon was 12.9 µM; in the assay with MALME-3M melanoma it was more than 100 µM; in the assay on OVCAR-8 ovarian, 28.9 µM.
Take `CC(/C(=N\Nc1ccccc1)c1ccc(O)cc1)C1C(=O)Oc2ccccc21` (stereo not drawn): the TGI in the assay with SNB-75 CNS, in the assay with RXF 393 renal, in the assay on SF-295 CNS, in the assay on SR leukemia, in the assay with M14 melanoma and with HCT-116 colon was more than 100 µM throughout. In addition, the TGI with MALME-3M melanoma and in the assay on OVCAR-8 ovarian was more than 100 µM in each case.
For `CCN1C(=O)N(CC)C2Nn3c(s/c(=C\c4ccccc4Br)c3=O)=NC21` (stereo not drawn), the GI50 with SNB-75 CNS was 0.797 µM; in the assay on OVCAR-5 ovarian it was 2.01 µM; in the assay with NCI-H522 lung, 1.26 µM; in the assay on RXF 393 renal, 1.09 µM; in the assay on SF-295 CNS, 0.691 µM; in the assay with SR leukemia, 0.573 µM. Moreover, the GI50 is 0.497 µM with HCT-116 colon, 8.08 µM with MALME-3M melanoma and 1.61 µM in the assay on OVCAR-8 ovarian. Also, the TGI in the assay with SNB-75 CNS is 8.3 µM; in the assay with OVCAR-5 ovarian, more than 100 µM; with NCI-H522 lung it was 4.15 µM; with RXF 393 renal, 6.91 µM; in the assay on SF-295 CNS it was 7.75 µM; in the assay with SR leukemia, 8.3 µM. In addition, the values for the TGI with HCT-116 colon, in the assay on MALME-3M melanoma and in the assay with OVCAR-8 ovarian were more than 100 µM, 78.1 µM and 7.85 µM, respectively.
With `Cc1ccc(-c2cc3c(SCC(=O)Nc4cc(C(F)(F)F)ccc4Cl)nccn3n2)cc1`, the GI50 in the assay with SNB-75 CNS was 23.5 µM; in the assay with OVCAR-5 ovarian, more than 100 µM; in the assay on RXF 393 renal, more than 100 µM; with SF-295 CNS it was more than 100 µM; in the assay with SR leukemia it was more than 100 µM; in the assay on M14 melanoma, more than 100 µM. Besides, the GI50 with HCT-116 colon is 5.01 µM; in the assay on MALME-3M melanoma, more than 100 µM; in the assay on OVCAR-8 ovarian it was 29.8 µM. The TGI in the assay with SNB-75 CNS, in the assay with OVCAR-5 ovarian, with RXF 393 renal, with SF-295 CNS, with SR leukemia and in the assay on M14 melanoma was more than 100 µM in each case. Further, the TGI in the assay with HCT-116 colon, with MALME-3M melanoma and in the assay with OVCAR-8 ovarian was more than 100 µM in each case.
Take `CCOC(=O)C1C2CCC(C2)C1(CCl)C(=O)OCC` (stereo not drawn): the TGI in the assay with OVCAR-5 ovarian, with SF-295 CNS, in the assay on SR leukemia, in the assay on M14 melanoma, in the assay on HCT-116 colon and in the assay with MALME-3M melanoma was more than 100 µM in each case. In the assay with OVCAR-8 ovarian, this compound gave a TGI of more than 100 µM.
Take `Cc1cccc2c1N(C(=O)/C=C\C(=O)O)C(c1c(C)[nH]c3ccccc13)C2` (stereo not drawn): the TGI in the assay on SNB-75 CNS is more than 10 µM; in the assay with OVCAR-5 ovarian it was more than 100 µM; in the assay on NCI-H522 lung, 46.3 µM; with SF-295 CNS it was more than 100 µM; in the assay on SR leukemia, more than 100 µM; in the assay with M14 melanoma, more than 100 µM. For the same compound, the TGI with HCT-116 colon is 54.3 µM; in the assay on MALME-3M melanoma, 48.1 µM; with OVCAR-8 ovarian it was more than 100 µM.
As to `Cc1ccc2ncnc(N(CC(C)C)CC(C)C)c2c1`, the GI50 in the assay with OVCAR-5 ovarian was 20.1 µM; in the assay with NCI-H522 lung, 18.9 µM; with RXF 393 renal it was 11.5 µM; with SF-295 CNS it was 16.7 µM; with SR leukemia, 7.76 µM; in the assay on M14 melanoma, 14.8 µM. In addition, the GI50 in the assay with MALME-3M melanoma was 16.8 µM; with OVCAR-8 ovarian it was 12.1 µM. Also, the TGI with OVCAR-5 ovarian is 43.7 µM; in the assay on NCI-H522 lung, more than 100 µM; in the assay with RXF 393 renal, 27.7 µM; in the assay on SF-295 CNS, 32.7 µM; in the assay with SR leukemia, 26.3 µM; with M14 melanoma, 30.8 µM. For the same compound, the TGI with HCT-116 colon came to 27.7 µM; in the assay on MALME-3M melanoma it was 31.7 µM; in the assay with OVCAR-8 ovarian, 31.9 µM.
As to `CC(=O)Nc1cc(N(CCOS(C)(=O)=O)CCOS(C)(=O)=O)ccc1N=O`, the TGI with SNB-75 CNS, in the assay with OVCAR-5 ovarian, in the assay with NCI-H522 lung, in the assay on SF-295 CNS, with SR leukemia and in the assay with M14 melanoma was more than 100 µM in each case. Moreover, the TGI with HCT-116 colon, with MALME-3M melanoma and in the assay with OVCAR-8 ovarian was more than 100 µM each time.
As to `O=C(O)C[C@H]1CCCCC12CCOC2=O` (stereo partly drawn), the TGI with SNB-75 CNS, in the assay on OVCAR-5 ovarian, in the assay with NCI-H522 lung, in the assay on RXF 393 renal, in the assay on SF-295 CNS and with SR leukemia was more than 100 µM throughout. For the same compound, the TGI with M14 melanoma, in the assay with HCT-116 colon and in the assay with OVCAR-8 ovarian was more than 100 µM each time.
